# Numbers after ± are expanded uncertainties.
# Legend:
# [1] = refractive index (Na D-line) (dimensionless); settings: 298.15 K; 101.33 kPa; Liquid; Standard Abbe refractometry
# [2] = Liquid; for mass density / speed of sound: 298.15 K, 101.33 kPa
# [3] = xn = mol fraction of the nth substance listed; settings: 298.15 K, 101 kPa, Liquid
# [4] = Ebulliometric method (Recirculating still)
smiles,measurement,setting,value
CCC(C)CO (stereo not given) [2-methyl-1-butanol],refractive index,[1],1.40866 ± 0.00072
same,mass density,[2],814.7 ± 0.6 kg/m3
same,speed of sound,[2],1251.8 ± 1.8 m/s
same,Normal boiling temperature,[2]; [4],128.78 ± 0.2 °C
CCC(C)CO (stereo not given) [2-methyl-1-butanol] + CCOC(C)=O,mass density,[3]; x2 = 0.05,817.8 ± 0.6 kg/m3
same,mass density,[3]; x2 = 0.099,820.9 ± 0.6 kg/m3
same,mass density,[3]; x2 = 0.15,824.2 ± 0.5 kg/m3
same,mass density,[3]; x2 = 0.2,827.5 ± 0.5 kg/m3
same,mass density,[3]; x2 = 0.25,830.9 ± 0.5 kg/m3
same,mass density,[3]; x2 = 0.3,834.4 ± 0.5 kg/m3
same,mass density,[3]; x2 = 0.349,838 ± 0.5 kg/m3
same,mass density,[3]; x2 = 0.399,841.7 ± 0.5 kg/m3
same,mass density,[3]; x2 = 0.451,845.6 ± 0.5 kg/m3
same,mass density,[3]; x2 = 0.499,849.4 ± 0.5 kg/m3
same,mass density,[3]; x2 = 0.549,853.3 ± 0.5 kg/m3
same,mass density,[3]; x2 = 0.598,857.3 ± 0.5 kg/m3
same,mass density,[3]; x2 = 0.65,861.6 ± 0.5 kg/m3
same,mass density,[3]; x2 = 0.699,865.8 ± 0.5 kg/m3
same,mass density,[3]; x2 = 0.75,870.2 ± 0.5 kg/m3
same,mass density,[3]; x2 = 0.793,874.2 ± 0.5 kg/m3
same,mass density,[3]; x2 = 0.846,879.1 ± 0.5 kg/m3
same,mass density,[3]; x2 = 0.9,884.2 ± 0.5 kg/m3
same,mass density,[3]; x2 = 0.95,889.1 ± 0.4 kg/m3
CC(C)CO [2-methyl-1-propanol],refractive index,[1],1.39366 ± 0.00073
same,mass density,[2],797.8 ± 0.6 kg/m3
same,speed of sound,[2],1186.4 ± 1.7 m/s
same,Normal boiling temperature,[2]; [4],107.78 ± 0.2 °C
CC(C)CO [2-methyl-1-propanol] + CCOC(C)=O,mass density,[3]; x2 = 0.049,802.3 ± 0.6 kg/m3
same,mass density,[3]; x2 = 0.101,806.8 ± 0.6 kg/m3
same,mass density,[3]; x2 = 0.153,811.5 ± 0.6 kg/m3
same,mass density,[3]; x2 = 0.202,816 ± 0.6 kg/m3
same,mass density,[3]; x2 = 0.251,820.6 ± 0.6 kg/m3
same,mass density,[3]; x2 = 0.3,825.2 ± 0.6 kg/m3
same,mass density,[3]; x2 = 0.35,829.9 ± 0.6 kg/m3
same,mass density,[3]; x2 = 0.401,834.7 ± 0.6 kg/m3
same,mass density,[3]; x2 = 0.451,839.5 ± 0.5 kg/m3
same,mass density,[3]; x2 = 0.501,844.3 ± 0.5 kg/m3
same,mass density,[3]; x2 = 0.55,849 ± 0.5 kg/m3
same,mass density,[3]; x2 = 0.6,853.8 ± 0.5 kg/m3
same,mass density,[3]; x2 = 0.65,858.8 ± 0.5 kg/m3
same,mass density,[3]; x2 = 0.7,863.7 ± 0.5 kg/m3
same,mass density,[3]; x2 = 0.751,868.9 ± 0.5 kg/m3
same,mass density,[3]; x2 = 0.801,873.8 ± 0.5 kg/m3
same,mass density,[3]; x2 = 0.85,878.7 ± 0.5 kg/m3
same,mass density,[3]; x2 = 0.9,883.8 ± 0.5 kg/m3
same,mass density,[3]; x2 = 0.95,888.9 ± 0.5 kg/m3
CCOC(C)=O [ethyl acetate],refractive index,[1],1.36978 ± 0.00072
same,mass density,[2],894.3 ± 0.2 kg/m3
same,speed of sound,[2],1139.6 ± 1.6 m/s
same,Normal boiling temperature,[2],77.00 ± 0.2 °C
